The text below walks through data of ChEMBL document CHEMBL1124111, “Studies directed toward ascertaining the active conformation of 1,4-dihydropyridine calcium entry blockers” (J Med Chem, 1988).

Each structure is given as a SMILES string.

Data set [1] deals with Voltage-dependent L-type calcium channel (Cavia porcellus). As to the kind of experiment: Dissociation constant for inhibition of [3H]nitrendipine binding to guinea pig myocardial membranes. Particulars: read-out: Kd2.
For data set [2] the target is unchanged. The data set is described as above. Particulars: read-out: Kd1.
The subject of data set [3] is Voltage-dependent L-type calcium channel (Cavia porcellus). As to the kind of experiment: Bmax1 from dihydropyridine receptor binding assay in guinea pig myocardial membranes.
Data set [4] shares this test system. As to the kind of experiment: Bmax2 from dihydropyridine receptor binding assay in guinea pig myocardial membranes.
The species entered for another data set is Oryctolagus cuniculus. The data set can be described thus: Compound was tested for ability to relax potassium-contracted rabbit aorta smooth muscle. In kind it is functional.
Data set [5] addresses Voltage-dependent L-type calcium channel (Cavia porcellus). As to the kind of experiment: Dissociation constant for inhibition of [3H]nitrendipine binding to guinea pig myocardial membranes. Particulars: read-out: Kd2. The source holds these as a separate data set.

Consider `COC(=O)C1=C(C)N=C(C)/C(=C(\O)OC)C1c1cc([N+](=O)[O-])ccc1Cl` (stereo unspecified), for which the figures for the Kd in data set [1] and in data set [2] were 74.4 nM and 0.95 nM, respectively. Moreover, the Bmax1 in data set [3] is given as 49%. Moreover, the Bmax2 in data set [4] is reported as 51%. Further, in the data set filed under Oryctolagus cuniculus, half-maximal inhibition (IC50) required 13.6 nM.
With `COC(=O)C1=C(C)N=C(C)/C(=C(\O)OC)C1c1ccccc1Cl` (stereo unspecified), the Kd in data set [1] was determined as 1 nM; in data set [2] it was 0.006 nM. In addition, the Bmax1 in data set [3] was 21%. Moreover, the Bmax2 in data set [4] came to 79%. Further, in the data set listed under Oryctolagus cuniculus, the half-inhibitory concentration (IC50) (as a rule, the point on the concentration scale where inhibition reaches its midpoint) is 3 nM.
Take `COC(=O)C1=C(C)N=C(C)/C(=C(\O)OC)C1c1ccc([N+](=O)[O-])cc1Cl` (stereo unspecified): the Kd in data set [2] stood at 1.25 nM; in data set [5], 107 nM. Besides, the Bmax1 in data set [3] is 8%. Also, the Bmax2 in data set [4] came out at 92%. This compound yielded an IC50 in the data set filed under Oryctolagus cuniculus of 185 nM.
In the data set listed under Oryctolagus cuniculus, `COC(=O)C1=C(C)NC(C)=C(C(=O)OC)C1c1ccccc1[N+](=O)[O-]` [NIFEDIPINE] came in with an IC50 of 0.5 nM.
On to `COC(=O)C1=C(C)N=C(C)/C(=C(\O)OC)C1c1cccc([N+](=O)[O-])c1Cl` (stereo unspecified), for which the Kd was determined as 85 nM in data set [1] and 0.23 nM in data set [2]. The Bmax1 in data set [3] is given as 79%. The Bmax2 in data set [4] was determined as 21%. Besides, the concentration for half-maximal inhibition (IC50) in the data set filed under Oryctolagus cuniculus was determined as 1 nM.
For the compound `COC(=O)C1=C(C)N=C(C)/C(=C(\O)OC)C1c1cccc(C#N)c1` (stereo unspecified), the Kd in data set [1] amounted to 152 nM; in data set [2], 2.15 nM. Besides, the Bmax1 in data set [3] amounted to 83%. In data set [4], the Bmax2 was determined as 17%. In the data set filed under Oryctolagus cuniculus, this compound yielded a half-inhibitory concentration (IC50) of 11.1 nM.
